# Measured values: patent publication US20240398771A1, “TREATMENT OF SCLERODERMA AND RAYNAUD'S SYNDROME” (Aisa Pharma, Inc., priority 2023, published 2024)
# Tested on: participants with SSc-RP
# Experiment: Frequency of weekly symptomatic RP attacks (patient diary), Phase 2a Part A
# Format: in vivo, human
# Description: Part A—Double-blind, Placebo-controlled, Parallel-group, Dose selection, will assess the safety and efficacy of two doses of cilnidipine (10 mg and 20 mg), alone and in combination with tadalafil. A total of 36 participants will be randomized to one of six pre-specified treatment arms. See Example 3 for data obtained in this phase of the study thus far, on 11 participants.
# Please refer to FIG. 1 for treatment arms in Part A of the study. Dosing lasted or will last for 12 (±2) days in which participants self-administered or will self-administer daily doses of assigned treatment in the morning. Each participant took or will take one capsule and one tablet to blind the active therapy being received.
# The relevant metrics measured by this tool daily are: • Study medication • SSc-RP symptoms (Reporting an attack including duration of attack) • Severity of the attack considering all symptoms of the attack e.g. tingling, numbness, pain, color changes (VAS 0-10 cm scale) • Participant's location at the time of the attack (inside home/outside home) • Selecting symptoms experienced during the attack (tingling, numbness, pain, color changes, other) • Pain rating during the attack (11-point Likert scale) • The RCS based on how much difficulty participants had with Raynaud's today, how many attacks the participant had, and how long they lasted. Participants will also be asked to consider how much pain, numbness, or other symptoms the Raynaud's caused in fingers (including painful sores), and how much the Raynaud's alone affected the use of hands today (VAS 0-10 cm scale).
# Percent change from baseline evaluation for frequency of weekly RP attacks were or will be used as the primary efficacy variable. The sponsor-developed participant-informed diary will be used to record data. Frequency of weekly RP attacks is defined as the total number of RP attacks divided by the number of days with available diary data within the last 7 days of each dosing period then multiplied by 7. Total number of RP attacks during the last 7 days of screening period divided by the number of days with available data then multiplied by 7 will be used as baseline for the analysis of all periods.
# Percentage change={(weekly RP attacks for the last 7 days of each dosing period−Baseline weekly RP attacks)/Baseline weekly RP attacks}*100%.
# Absolute change=weekly RP attacks for the last 7 days of each dosing period−Baseline weekly RP attacks
# Percent change from baseline evaluation for frequency of weekly RP attacks was and will be the primary efficacy endpoint. Frequency of weekly RP attacks is defined as the total number of RP attacks divided by the number of days with available diary data within the last 7 days of each dosing period then multiplied by 7. Total number of RP attacks during the last 7 days of screening period divided by the number of days with available data then multiplied by 7 will be used as baseline for the analysis of all periods.
# The following data was actually obtained in accordance with the protocol and plan delineated in Examples 1 and 2. The accompanying data involved 11 patients out of the planned 76 patient study. The study was done in patients with scleroderma (systemic sclerosis) who had relatively frequent Raynaud symptoms as they needed to average at least one attack per day during a screening period of up to two weeks. In this first phase of this double-blind placebo-controlled, prospective randomized study, patients were treated in parallel and after meeting study criteria were randomized to receive either placebo, cilnidipine 10 mg daily, cilnidipine 20 mg daily, tadalafil 5 mg daily, cilnidipine 10 mg plus 5 mg of tadalafil, or cilnidipine 20 mg plus 5 mg of tadalafil.
# [1] = Table A-1, ITT Part A, last 7 days of dosing period
# [2] = Table A-1, ITT Part A, last 7 days of dosing vs last 7 days of screening
# [3] = Table A-2, excluding outliers, ITT Part A
# [4] = Table A-2, excluding outliers, ITT Part A, last 7 days of dosing period
# [5] = Table A-3 by baseline RCS, second sub-table (heading not given; RCS >5.0), ITT Part A
# [6] = Table A-1, ITT Part A, last 7 days of dosing period, listed as Cilnidipine 10 mg
# [7] = Table A-1, ITT Part A, last 7 days of dosing period, listed as Cilnidipine 20 mg
# [8] = Table A-1, ITT Part A, last 7 days of dosing period, listed as Pooled Cilnidipine
# [9] = Table A-1, ITT Part A, last 7 days of dosing vs last 7 days of screening, listed as Cilnidipine 10 mg
# [10] = Table A-1, ITT Part A, last 7 days of dosing vs last 7 days of screening, listed as Cilnidipine 20 mg
# [11] = Table A-1, ITT Part A, last 7 days of dosing vs last 7 days of screening, listed as Pooled Cilnidipine
# [12] = Table A-2, excluding outliers, ITT Part A, last 7 days of dosing period, listed as Cilnidipine 10 mg
# [13] = Table A-2, excluding outliers, ITT Part A, last 7 days of dosing period, listed as Cilnidipine 20 mg
# [14] = Table A-2, excluding outliers, ITT Part A, last 7 days of dosing period, listed as Pooled Cilnidipine
# [15] = Table A-3 by baseline RCS, first sub-table (RCS <5.0), ITT Part A, listed as Cilnidipine 10 mg
# [16] = Table A-3 by baseline RCS, first sub-table (RCS <5.0), ITT Part A, listed as Cilnidipine 20 mg
# [17] = Table A-3 by baseline RCS, first sub-table (RCS <5.0), ITT Part A, listed as Pooled Cilnidipine
smiles,measurement,setting,value
CN1CC(=O)N2[C@H](c3ccc4c(c3)OCO4)c3[nH]c4ccccc4c3C[C@@H]2C1=O [Tadalafil],"Weekly Symptomatic RP Attacks, Min",[1],7.0
same,"Weekly Symptomatic RP Attacks, Q1",[1],7.00
same,"Weekly Symptomatic RP Attacks Change from Baseline, Mean (SD)",[2],4.50 (2.121)
same,"Weekly Symptomatic RP Attacks Change from Baseline, Median",[2],4.50
same,"Weekly Symptomatic RP Attacks Change from Baseline, Min",[2],3.0
same,"Weekly Symptomatic RP Attacks Change from Baseline, Q1",[2],3.00
same,"Weekly Symptomatic RP Attacks Percent Change from Baseline, Max",[2],75.0%
same,"Weekly Symptomatic RP Attacks Percent Change from Baseline, Q3",[2],75.00%
same,"Weekly Symptomatic RP Attacks Change from Baseline, Max",[3],"6.0, 6.0"
same,"Weekly Symptomatic RP Attacks Change from Baseline, Q3",[3],"6.00, 6.00"
same,"Weekly Symptomatic RP Attacks Percent Change from Baseline, Min",[3],"50.0, 50.0%"
same,"Weekly Symptomatic RP Attacks Percent Change from Baseline, Q1",[3],"50.00, 50.00%"
same,"Weekly Symptomatic RP Attacks, Max",[4],"18.0, 18.0"
same,"Weekly Symptomatic RP Attacks, Q3",[4],"18.00, 18.00"
same,"Weekly Symptomatic RP Attacks Change from Baseline, Max",[5],6.0
same,"Weekly Symptomatic RP Attacks Change from Baseline, Min",[5],3.0
same,"Weekly Symptomatic RP Attacks Change from Baseline, Q1",[5],3.00
same,"Weekly Symptomatic RP Attacks Change from Baseline, Q3",[5],6.00
same,"Weekly Symptomatic RP Attacks Percent Change from Baseline, Max",[5],75.0%
same,"Weekly Symptomatic RP Attacks Percent Change from Baseline, Min",[5],50.0%
same,"Weekly Symptomatic RP Attacks Percent Change from Baseline, Q1",[5],50.00%
same,"Weekly Symptomatic RP Attacks Percent Change from Baseline, Q3",[5],75.00%
same,"Weekly Symptomatic RP Attacks, Max",[5],18.0
same,"Weekly Symptomatic RP Attacks, Min",[5],7.0
same,"Weekly Symptomatic RP Attacks, Q1",[5],7.00
same,"Weekly Symptomatic RP Attacks, Q3",[5],18.00
"COCCOC(=O)C1=C(C)NC(C)=C(C(=O)OC/C=C/c2ccccc2)C1c1cccc([N+](=O)[O-])c1 (centres unmarked) [Cilnidipine, 1,4-dihydro-2,6-dimethyl,4-(3-nitrophenyl)-3,5-pyridinedicarboxylic acid 2-methoxyethyl (2 E)-3-phenyl-2-propenyl ester]","weekly frequency of Raynaud attacks, direction of change","Example 3, first 11 patients of Part A, vs baseline",decrease
same,"Weekly Symptomatic RP Attacks, Max",[6],"14.0, 14.0"
same,"Weekly Symptomatic RP Attacks, Mean (SD)",[6],14.00
same,"Weekly Symptomatic RP Attacks, Min",[6],"14.0, 14.0"
same,"Weekly Symptomatic RP Attacks, Q1",[6],"14.00, 14.00"
same,"Weekly Symptomatic RP Attacks, Q3",[6],"14.00, 14.00"
same,"Weekly Symptomatic RP Attacks, Max",[7],11.0
same,"Weekly Symptomatic RP Attacks, Mean (SD)",[7],8.00 (4.243)
same,"Weekly Symptomatic RP Attacks, Min",[7],5.0
same,"Weekly Symptomatic RP Attacks, Q1",[7],5.00
same,"Weekly Symptomatic RP Attacks, Q3",[7],11.00
same,"Weekly Symptomatic RP Attacks, Max",[8],14.0
same,"Weekly Symptomatic RP Attacks, Mean (SD)",[8],10.00 (4.583)
same,"Weekly Symptomatic RP Attacks, Min",[8],5.0
same,"Weekly Symptomatic RP Attacks, Q1",[8],5.00
same,"Weekly Symptomatic RP Attacks, Q3",[8],14.00
same,"Weekly Symptomatic RP Attacks Percent Change from Baseline, Min",[2],"−33.3, −33.3%"
same,"Weekly Symptomatic RP Attacks Change from Baseline, Max",[9],"−7.0, −7.0"
same,"Weekly Symptomatic RP Attacks Change from Baseline, Mean (SD)",[9],−7.00
same,"Weekly Symptomatic RP Attacks Change from Baseline, Min",[9],"−7.0, −7.0"
same,"Weekly Symptomatic RP Attacks Change from Baseline, Q1",[9],"−7.00, −7.00"
same,"Weekly Symptomatic RP Attacks Change from Baseline, Q3",[9],"−7.00, −7.00"
same,"Weekly Symptomatic RP Attacks Percent Change from Baseline, Max",[9],"−33.3, −33.3%"
same,"Weekly Symptomatic RP Attacks Change from Baseline, Max",[10],−2.0
same,"Weekly Symptomatic RP Attacks Change from Baseline, Mean (SD)",[10],−4.50 (3.536)
same,"Weekly Symptomatic RP Attacks Change from Baseline, Min",[10],−7.0
same,"Weekly Symptomatic RP Attacks Change from Baseline, Q1",[10],−7.00
same,"Weekly Symptomatic RP Attacks Change from Baseline, Q3",[10],−2.00
same,"Weekly Symptomatic RP Attacks Percent Change from Baseline, Max",[10],−28.6%
same,"Weekly Symptomatic RP Attacks Percent Change from Baseline, Min",[10],−38.9%
same,"Weekly Symptomatic RP Attacks Change from Baseline, Max",[11],−2.0
same,"Weekly Symptomatic RP Attacks Change from Baseline, Min",[11],−7.0
same,"Weekly Symptomatic RP Attacks Change from Baseline, Q1",[11],−7.00
same,"Weekly Symptomatic RP Attacks Change from Baseline, Q3",[11],−2.00
same,"Weekly Symptomatic RP Attacks Percent Change from Baseline, Max",[11],−28.6%
same,"Weekly Symptomatic RP Attacks Percent Change from Baseline, Min",[11],−38.9%
same,"Weekly Symptomatic RP Attacks Percent Change from Baseline, Q3",[11],−28.57%
same,"Weekly Symptomatic RP Attacks, Max",[12],"14.0, 14.0"
same,"Weekly Symptomatic RP Attacks, Mean (SD)",[12],14.00
same,"Weekly Symptomatic RP Attacks, Min",[12],"14.0, 14.0"
same,"Weekly Symptomatic RP Attacks, Q1",[12],"14.00, 14.00"
same,"Weekly Symptomatic RP Attacks, Q3",[12],"14.00, 14.00"
same,"Weekly Symptomatic RP Attacks, Max",[13],11.0
same,"Weekly Symptomatic RP Attacks, Mean (SD)",[13],8.00 (4.243)
same,"Weekly Symptomatic RP Attacks, Min",[13],5.0
same,"Weekly Symptomatic RP Attacks, Q1",[13],5.00
same,"Weekly Symptomatic RP Attacks, Q3",[13],11.00
same,"Weekly Symptomatic RP Attacks, Max",[14],14.0
same,"Weekly Symptomatic RP Attacks, Mean (SD)",[14],10.00 (4.583)
same,"Weekly Symptomatic RP Attacks, Min",[14],5.0
same,"Weekly Symptomatic RP Attacks, Q1",[14],5.00
same,"Weekly Symptomatic RP Attacks, Q3",[14],14.00
same,"Weekly Symptomatic RP Attacks Percent Change from Baseline, Min","Table A-3 by baseline RCS, first sub-table (RCS <5.0), ITT Part A","−33.3, −33.3%"
same,"Weekly Symptomatic RP Attacks Change from Baseline, Max",[15],"−7.0, −7.0"
same,"Weekly Symptomatic RP Attacks Change from Baseline, Min",[15],"−7.0, −7.0"
same,"Weekly Symptomatic RP Attacks Change from Baseline, Q1",[15],"−7.00, −7.00"
same,"Weekly Symptomatic RP Attacks Change from Baseline, Q3",[15],"−7.00, −7.00"
same,"Weekly Symptomatic RP Attacks Percent Change from Baseline, Max",[15],"−33.3, −33.3%"
same,"Weekly Symptomatic RP Attacks Change from Baseline, Max",[16],−2.0
same,"Weekly Symptomatic RP Attacks Change from Baseline, Min",[16],−7.0
same,"Weekly Symptomatic RP Attacks Change from Baseline, Q1",[16],−7.00
same,"Weekly Symptomatic RP Attacks Change from Baseline, Q3",[16],−2.00
same,"Weekly Symptomatic RP Attacks Percent Change from Baseline, Max",[16],−28.6%
same,"Weekly Symptomatic RP Attacks Percent Change from Baseline, Min",[16],−38.9%
same,"Weekly Symptomatic RP Attacks Percent Change from Baseline, Q3",[16],−28.57%
same,"Weekly Symptomatic RP Attacks Change from Baseline, Max",[17],−2.0
same,"Weekly Symptomatic RP Attacks Change from Baseline, Min",[17],−7.0
same,"Weekly Symptomatic RP Attacks Change from Baseline, Q1",[17],−7.00
same,"Weekly Symptomatic RP Attacks Change from Baseline, Q3",[17],−2.00
same,"Weekly Symptomatic RP Attacks Percent Change from Baseline, Max",[17],−28.6%
same,"Weekly Symptomatic RP Attacks Percent Change from Baseline, Min",[17],−38.9%
same,"Weekly Symptomatic RP Attacks Percent Change from Baseline, Q3",[17],−28.57%
